Data taken from patent US20050282818A1, “Ubiquitin ligase inhibitors” (Rigel Pharmaceuticals, Inc., priority 2004, published 2005).
Read-outs that look alike come from different tables or passages of the source.

Tests used:
TRAF6/Uev1A/Ubc13 = target: T1, TRAF6/Uev1A/Ubc13 (Homo sapiens, UniProt Q9Y4K3); test: TRAF6/Uev1A/Ubc13 plate-based ubiquitin ligase assay; format: biochemical
T1 sequence (Q9Y4K3 1-522): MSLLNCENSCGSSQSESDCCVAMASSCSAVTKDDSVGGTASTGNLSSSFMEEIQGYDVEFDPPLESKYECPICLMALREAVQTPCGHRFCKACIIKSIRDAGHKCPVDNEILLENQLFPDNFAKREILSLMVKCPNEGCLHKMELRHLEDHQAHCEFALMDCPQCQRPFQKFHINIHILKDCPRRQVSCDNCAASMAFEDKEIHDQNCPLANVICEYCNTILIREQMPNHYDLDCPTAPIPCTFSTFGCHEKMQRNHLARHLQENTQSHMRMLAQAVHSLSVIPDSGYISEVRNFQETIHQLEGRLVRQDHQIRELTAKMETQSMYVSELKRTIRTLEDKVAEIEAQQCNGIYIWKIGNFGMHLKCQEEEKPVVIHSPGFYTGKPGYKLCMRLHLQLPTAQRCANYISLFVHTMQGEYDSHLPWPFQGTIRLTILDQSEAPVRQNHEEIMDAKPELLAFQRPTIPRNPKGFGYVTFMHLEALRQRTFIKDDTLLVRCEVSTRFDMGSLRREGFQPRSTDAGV
Method in brief: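 Ligase activity was read as luminescence from anti-Flag/HRP detection of Flag-ubiquitin bound to casein-blocked Ni-plates alongside His-ubiquitin after a 1 h room-temperature reaction. Buffer: 62.5 mM Tris pH 7.5, 6.25 mM MgCl2, 1.0 mM DTT, 2 μM ATP; E1, Uev1a/Ubc13 and TRAF6 added last to start. IC50s derived across compound concentrations.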

A549 cells = test: Cell proliferation PAD assay, A549; format: cell-based; conditions: Homo sapiens, 48 hours
Method in brief: (§1)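 2,000 cells/well; compound added at 24 h (duplicate, 6.3-fold series, 10 mM stock, 500× dilution into wells); 48 h, 37 °C/5% CO2. Formamide fix, DAPI stain, image-based counts of live (proliferation), apoptotic, dead cells.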

H1299 cells = test: Cell proliferation PAD assay, H1299; format: cell-based; conditions: Homo sapiens, 48 hours
Method in brief: as §1

[1] = NCI-H1299, 6pt, read-out: H1299 6pt
[2] = NCI-H1299, 3pt, read-out: H1299 3pt

| Structure (SMILES) | IC50 (TRAF6/Uev1A/Ubc13) [µM] | IC50 (A549 cells; 6pt, read-out: A549 6pt) [µM] | IC50 (H1299 cells; [1]) [µM] | IC50 (A549 cells; 3pt, read-out: A549 3pt) [µM] | IC50 (H1299 cells; [2]) [µM] |
| --- | --- | --- | --- | --- | --- |
| Cc1ccc(N2CCN(c3ccc([N+](=O)[O-])c4nonc34)CC2)cc1C [compound 140, 4-[4-(3,4-dimethylphenyl)piperazin-1-yl]-7-nitro-2,1,3-benzoxadiazole] | 1 to 20 | – | – | ≥ 20 | ≥ 20 |
| COc1cc(NS(=O)(=O)c2ccc(Cl)c3nonc23)c(OC)cc1Cl [compound 341, 7-chloro-N-(4-chloro-2,5-dimethoxyphenyl)-2,1,3-benzoxadiazole-4-sulfonamide] | ≥ 20 | 1 to 20 | 1 to 20 | – | – |
| CCOC(=O)c1cc(C#N)c(C)nc1N1CCN(c2ccc([N+](=O)[O-])c3nonc23)CC1 [compound 153, ethyl 5-cyano-6-methyl-2-[4-(7-nitro-2,1,3-benzoxadiazol-4-yl)piperazin-1-yl]nicotinate] | 1 to 20 | – | – | ≥ 20 | ≥ 20 |
| O=S(=O)(Nc1cccc(F)c1)c1ccc(Cl)c2nonc12 [compound 263, 7-chloro-N-(3-fluorophenyl)-2,1,3-benzoxadiazole-4-sulfonamide] | ≥ 20 | – | – | 1 to 20 | 1 to 20 |
| COC(=O)c1ccc(NS(=O)(=O)c2ccc(F)c3nonc23)cc1 [compound 167, methyl 4-{[(7-fluoro-2,1,3-benzoxadiazol-4-yl)sulfonyl]amino}benzoate] | ≥ 20 | ≥ 20 | ≥ 20 | 1 to 20 | 1 to 20 |
| N#Cc1ccc(N2CCN(c3ccc([N+](=O)[O-])c4nonc34)CC2)nc1 [compound 121, 6-[4-(7-nitro-2,1,3-benzoxadiazol-4-yl)piperazin-1-yl]nicotinonitrile] | 1 to 20 | – | – | ≥ 20 | ≥ 20 |
| COc1cccc(-c2ccc([N+](=O)[O-])c3nonc23)c1F [compound 314, 4-(2-Fluoro-3-methoxyphenyl)-7-nitro-2,1,3-benzoxadiazole] | 1 to 20 | 1 to 20 | 1 to 20 | – | – |
| O=[N+]([O-])c1ccc(-c2cccc(C(F)(F)F)c2)c2nonc12 [compound 309, 4-Nitro-7-[3-(trifluoromethyl)phenyl]-2,1,3-benzoxadiazole] | 1 to 20 | 1 to 20 | 1 to 20 | – | – |
| Cc1cc(C)cc(-c2ccc([N+](=O)[O-])c3nonc23)c1 [compound 286, 4-(3,5-Dimethylphenyl)-7-nitro-2,1,3-benzoxadiazole] | ≥ 20 | ≥ 20 | < 1 | 1 to 20 | 1 to 20 |
| Cc1cc(C)cc(-c2cccc3nonc23)c1 [compound 285, 4-(3,5-Dimethylphenyl)-2,1,3-benzoxadiazole] | ≥ 20 | ≥ 20 | – | ≥ 20 | ≥ 20 |
| O=[N+]([O-])c1ccc(Oc2c(Cl)cc(S(=O)(=O)Nc3cccc4nsnc34)cc2Cl)c(Cl)c1 [compound 73, N-2,1,3-benzothiadiazol-4-yl-3,5-dichloro-4-(2-chloro-4-nitrophenoxy)benzenesulfonamide] | 1 to 20 | 1 to 20 | 1 to 20 | ≥ 20 | ≥ 20 |

The remaining lines, values ahead:

| IC50 (TRAF6/Uev1A/Ubc13) [µM] | IC50 (A549 cells; 6pt, read-out: A549 6pt) [µM] | IC50 (H1299 cells; [1]) [µM] | IC50 (A549 cells; 3pt, read-out: A549 3pt) [µM] | IC50 (H1299 cells; [2]) [µM] | Structure (SMILES) |
| --- | --- | --- | --- | --- | --- |
| 1 to 20 | < 1 | < 1 | – | – | O=[N+]([O-])c1ccc(Sc2cccc3cccnc23)c2nonc12 [compound 5, 8-[(7-Nitro-2,1,3-benzoxadiazol-4-yl)thio]quinoline] |
| ≥ 20 | ≥ 20 | ≥ 20 | 1 to 20 | 1 to 20 | N#CC1(c2ccccc2)CCN(S(=O)(=O)c2ccc(O)c3nonc23)CC1 [compound 199, 1-[(7-hydroxy-2,1,3-benzoxadiazol-4-yl)sulfonyl]-4-phenylpiperidine-4-carbonitrile] |
| 1 to 20 | ≥ 20 | ≥ 20 | ≥ 20 | 1 to 20 | O=S(=O)(Oc1ccc(N2CCN(S(=O)(=O)c3ccc(Cl)c4nonc34)CC2)cc1)c1ccc(Cl)c2nonc12 [compound 171, 4-{4-[(7-chloro-2,1,3-benzoxadiazol-4-yl)sulfonyl]piperazin-1-yl}phenyl 7-chloro-2,1,3-benzoxadiazole-4-sulfonate] |
| ≥ 20 | ≥ 20 | < 1 | 1 to 20 | 1 to 20 | O=S(=O)(c1c(Cl)ccc2nonc12)N1CCN(c2cnccn2)CC1 [compound 200, 5-chloro-4-[(4-pyrazin-2-ylpiperazin-1-yl)sulfonyl]-2,1,3-benzoxadiazole] |
| ≥ 20 | ≥ 20 | ≥ 20 | – | – | O=S(=O)(Nc1ccc2cn[nH]c2c1)c1c(O)ccc2nonc12 [compound 339, 5-hydroxy-N-(1H-indazol-6-yl)2,1,3-benzoxadiazole-4-sulfonamide] |
| ≥ 20 | 1 to 20 | < 1 | 1 to 20 | 1 to 20 | O=S(=O)(c1ccc(Cl)c2nonc12)N1CCN(c2ccccc2)CC1 [compound 186, 4-chloro-7-[(4-phenylpiperazin-1-yl)sulfonyl]-2,1,3-benzoxadiazole] |
| ≥ 20 | < 1 | < 1 | 1 to 20 | 1 to 20 | Cc1cccc(N2CCN(S(=O)(=O)c3c(Cl)ccc4nonc34)CC2)n1 [compound 202, 5-chloro-4-{[4-(6-methylpyridin-2-yl)piperazin-1-yl]sulfonyl}-2,1,3-benzoxadiazole] |
| 1 to 20 | – | – | ≥ 20 | ≥ 20 | O=[N+]([O-])c1ccc(N2CCN(c3ncccc3C(F)(F)F)CC2)c2nonc12 [compound 148, 4-nitro-7-{4-[3-(trifluoromethyl)pyridin-2-yl]piperazin-1-yl}-2,1,3-benzoxadiazole] |
| 1 to 20 | 1 to 20 | < 1 | 1 to 20 | 1 to 20 | O=S(=O)(c1c(Cl)ccc2nonc12)N1CCN(c2ncc(C(F)(F)F)cc2Cl)CC1 [compound 179, 5-chloro-4-({4-[3-chloro-5-(trifluoromethyl)pyridin-2-yl]piperazin-1-yl}sulfonyl)-2,1,3-benzoxadiazole] |
| 1 to 20 | – | – | 1 to 20 | 1 to 20 | O=[N+]([O-])c1ccc(N2CCN(c3ccc(O)cc3)CC2)c2nonc12 [compound 146, 4-[4-(7-nitro-2,1,3-benzoxadiazol-4-yl)piperazin-1-yl]phenol] |
| 1 to 20 | 1 to 20 | ≥ 20 | ≥ 20 | ≥ 20 | O=S(=O)(c1c(N2CCN(c3ccc(Cl)c(C(F)(F)F)c3)CC2)ccc2nonc12)N1CCN(c2ccc(Cl)c(C(F)(F)F)c2)CC1 [compound 181, 5-{4-[4-chloro-3-(trifluoromethyl)phenyl]piperazin-1-yl}-4-({4-[4-chloro-3-(trifluoromethyl)phenyl]piperazin-1-yl}sulfonyl)-2,1,3-benzoxadiazole] |
| 1 to 20 | – | – | ≥ 20 | ≥ 20 | O=[N+]([O-])c1ccc(N2CCN(c3ncccn3)CC2)c2nonc12 [compound 109, 4-nitro-7-(1,3-(pyrimidin-2-yl)piperazin-1-yl)-2,1,3-benzoxadiazole] |
| 1 to 20 | ≥ 20 | < 1 | – | – | CC1(C)CCN(S(=O)(=O)c2c(Cl)ccc3nonc23)CC1 [compound 245, 5-chloro-4-[(4,4-dimethylpiperidin-1-yl)sulfonyl]-2,1,3-benzoxadiazole] |
| 1 to 20 | – | – | 1 to 20 | 1 to 20 | CC(=O)N1CCN(S(=O)(=O)c2c(Sc3cccc4cccnc34)ccc3nonc23)CC1 [compound 214, 8-({4-[(4-acetylpiperazin-1-yl)sulfonyl]-2,1,3-benzoxadiazol-5-yl}thio)quinoline] |
| ≥ 20 | ≥ 20 | < 1 | 1 to 20 | 1 to 20 | O=c1[nH]c2ccccc2n1C1CCN(S(=O)(=O)c2ccc(Cl)c3nonc23)CC1 [compound 188, 1-{1-[(7-chloro-2,1,3-benzoxadiazol-4-yl)sulfonyl]piperidin-4-yl}-1,3-dihydro-2H-benzimidazol-2-one] |
| ≥ 20 | ≥ 20 | < 1 | 1 to 20 | 1 to 20 | CC(=O)N1CCN(S(=O)(=O)c2c(Cl)ccc3nonc23)CC1 [compound 201, 4-[(4-acetylpiperazin-1-yl)sulfonyl]-5-chloro-2,1,3-benzoxadiazole] |
| 1 to 20 | 1 to 20 | 1 to 20 | – | – | O=S(=O)(c1ccc(Sc2ccc(O)cc2)c2nonc12)N1CCC(Oc2ncccn2)CC1 [compound 226, 4-[(7-{[4-(pyrimidin-2-yloxy)piperidin-1-yl]sulfonyl}-2,1,3-benzaxadiazol-4-yl)thio]phenol] |
